Measurements as given in patent publication US12397007B2, “Methods of treatment with combinations of cannabidiol and psilocybin” (ECP Pharma, priority 2021, dated 2025).

Legend:
rat blast model of TBI = assay: Rat blast model of TBI, light dark box; assay type: in vivo; conditions: CBD 5 mg/kg IP, psilocybin 1.5 mg/kg PO from one hour after injury, 7 total doses; vs vehicle; FIG. 2
Description: This increased time spent in light was not seen with either CBD or psilocybin when dosed separately.

[1] = system: adult rats exposed to a moderate fluid-percussion pulse over the right parietal cortex; assay: Moderate fluid-percussion TBI, stereological volumetric analyses of contusion and cortical atrophy; assay type: in vivo, rat; conditions: approximately 4 weeks after injury; relative to injured vehicle-control animals; FIG. 5 right panel
Experimental: (§1) Another study was conducted in rats to evaluate the synergy of an oral combination of psilocybin and CBD in mitigating TBI-induced pathology in a preclinical model of TBI. In this study, adult rats were exposed to a moderate fluid-percussion pulse over the right parietal cortex.
(§2) Psilocybin (1.5 mg/kg) and/or CBD (5 mg/kg) in 1 mL of ddH2O (or vehicle/ddH2O alone) was dosed by oral gavage at 1-hour post-injury, and for 1×/day for 6 consecutive days thereafter, resulting in 7 total dosage administrations. Animals receiving psilocybin+CBD were exposed to a traumatic/fearful stimulus (predatory urine) to evaluate anxiety-like behavior. Outcome measurements included sensorimotor (cylinder test), cytoprotection (volumetric analyses of contusion and cortical atrophy), and neuroinflammation (microglia reactivity).

Iba1+ microglia = assay: Moderate fluid-percussion TBI, immunohistochemical analysis of microglia reactivity; assay type: in vivo, rat
Experimental: as §1, §2
Boxes demarcate representative cells in which changes could be compared.

[2] = preliminary quantitative analyses, FIG. 7

With `C=C(C)[C@@H]1CCC(C)=C[C@H]1c1c(O)cc(CCCCC)cc1O` [CBD, Cannabidiol] the “stress, time spent in light in the light dark box” value (rat blast model of TBI) was “not seen”, the cortical volume atrophy [1] was “trended positively towards normalization” and the “reactive microglia morphology, CA1” value (Iba1+ microglia; CBD 5 mg/kg alone vs TBI/Vehicle, FIG. 6 bottom row) was “seemed to reduce reactive microglia morphology”. For the same compound, the “number of Iba1+ cells, dentate gyrus of ipsilateral hippocampus” value (Iba1+ microglia; CBD 5 mg/kg alone vs controls, FIG. 6 middle row) was “significantly greater in number in controls compared to CBD group”, the “Iba1+ cell density, CA1” value (Iba1+ microglia; CBD 5 mg/kg alone vs injured vehicle, FIG. 6 bottom row) was “no overt differences” and the “injury-induced Iba+ microglia changes” value (Iba1+ microglia; CBD 5 mg/kg alone, FIG. 6) was “normalization of injury-induced Iba+microglia changes”. The “density of Iba1+ cells, pericontusional cortex” value (Iba1+ microglia; CBD 5 mg/kg alone, FIG. 6 top row) was “reduced density of Iba1+ cells”, the “activated microglia phenotypes, cortical penumbra” value (Iba1+ microglia; [2]) was “significantly decreased” and the “overall microglia numbers, cortical penumbra” value (Iba1+ microglia; [2]) was “reduced overall microglia numbers”.
